Data on 35 molecules can be found in patent US9617212B2, “Isoindolin-1-ones as macrophage migration inhibitory factor (MIF) inhibitors” (Controlled Chemicals, Inc., priority 2013, dated 2017).

pIC50: −log10 of the molar value.

The target of this assay is T1, Human MIF (MIF tautomerase) (Homo sapiens, UniProt P14174).
T1 construct: purchased ProSpec
T1 sequence (P14174 2-115 limits assumed): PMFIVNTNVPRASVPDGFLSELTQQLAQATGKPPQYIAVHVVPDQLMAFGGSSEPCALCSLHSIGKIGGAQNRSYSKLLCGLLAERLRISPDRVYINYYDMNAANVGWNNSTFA
Put plainly: MIF Tautomerase Inhibitory Assay with L-Dopachrome Methyl Ester. Type of assay: biochemical. To be noted: relative potency class, MIF tautomerase inhibition; L-dopachrome methyl ester substrate, pH 7.34, no pre-incubation; read-out: IC50. The procedure:
MIF Tautomerase Inhibitory Assay with L-Dopachrome Methyl Ester
Assay Method (pH 7.34, 0.017-0.033% DMSO, 0.034% EtOH): A fresh stock solution of L-dopachrome methyl ester in MeOH was prepared at 55-65 mM through oxidation of L-3,4-dihydroxyphenylalanine methyl ester hydrochloride with sodium periodate according to the procedure described in WO9729635A1. MeOH was removed from 0.5 mL of the L-dopachrome methyl ester/MeOH solution (55-65 mM) under a stream of argon and the residue taken up in appropriate amount of water to prepare a substrate solution (7-10 mM). Active Human MIF (from ProSpec) ([…]) was dissolved in 675 μL 0.1% bovine serum albumin (BSA) in water, and the resultant MIF solution (1 volume) mixed with 55 volumes of Na2HPO4 buffer (50 mM, pH 7.34) to form a 265 ng/mL MIF working solution. MIF working solution (280 μL) or a no-MIF working solution (prepared by mixing 0.1% BSA (1 volume) with the aforementioned Na2HPO4 buffer (55 volumes)) was transferred to wells in a column of 8 wells on a 96-well plate in a Plate Reader (SPECTRAmax Plus 384, Molecular Devices), and 5 μL of H2O/DMSO (99/1) containing no inhibitor or an inhibitor (whose concentration was verified by HPLC). Without pre-mixing or pre-incubation, 10 μL freshly prepared L-dopachrome methyl ester/H2O solution (7-10 mM) was added to each well with a multi-pipet. The assay samples were mixed immediately by sucking up and expelling the contents of the wells three times with a multi-pipet. The absorbance (A1) at 475 nm was then recorded for each sample every 2 s for 3 min. After 5-6 min, the samples were monitored again for 3 min with a reading every two seconds at 475 nm (A2). It can be shown that when [substrate]<<Km, plots of Ln(A1−A2) versus time are linear with slopes m (Eq 1). IC50 values were estimated from Eq 2-5, the inhibitor concentration [I] in the assay mixture and values of m in the presence (mi), absence (mo) of the inhibitor, the value of m observed for the non-MIF blank (mn), the MIF concentration (e), and the specificity constant for the MIF catalyzed reaction (kcat/Km). Ln(A1−A2)=−mt (Eq 1) F=(mi−mn)/(mo−mn) (Eq 2) Wherein mo−mn=ekcat/Km (Eq 3) and mi−mn=(ekcat/Km)[…] (Eq 4) IC50=[I]F/(1−F) (Eq 5)
The compounds listed in Table 1, provided herein, were prepared via procedures identical or similar to those described in the Examples 1-85. The listed compounds were >95% pure by HPLC. Each listed compound yielded a mass spectrum consistent with its structure. Concentrations of MIF tautomerase inhibitors used in the assay were verified by HPLC and the extinction coefficients of the inhibitors. The designated relative potency of MIF tautomerase inhibitors is based on the IC50 as determined by the method described in Biochemical Assay as follows: A, IC50<1 μM; B, 1 μM≦IC50<5 μM; C, 5 μM≦IC50<10 μM; D, 10 μM≦IC50<50 μM; E, 50 μM≦IC50<200 μM.
For the molecule `COC(=O)[C@@H](C)NC(C)C1CCC(CN2Cc3ccc(O)c(F)c3C2=O)CC1` (some centres unmarked) [drawing 112], the pIC50 was > 6.00.

Regarding `O=C1c2cc(O)ccc2CN1C1CCCCCC1`, the pIC50 was 5.00 to 5.30.

For the molecule `CNC(=O)CCNC(C)C1CCC(CN2Cc3ccc(O)c(F)c3C2=O)CC1` (centres unmarked), the pIC50 was > 6.00.

Take `COc1cccc(OC[C@H]2CC[C@H](CN3Cc4ccc(O)cc4C3=O)CC2)c1`: the pIC50 is > 6.00.

With `CC(Oc1cccc(OC[C@H](N)C(=O)O)c1)[C@H]1CC[C@H](CN2Cc3ccc(O)c(F)c3C2=O)CC1` (some centres unmarked), the negative-log IC50 (pIC50) was > 6.00.

With `O=C1c2c(ccc(O)c2F)CN1C[C@H]1CC[C@H](COc2cccc(F)c2)CC1`, the pIC50 is > 6.00.

In the case of `O=C1c2cc(O)ccc2CN1C[C@H]1CC[C@H](C(=O)OC2CCCCCC2)CC1`, the pIC50 was 5.00 to 5.30.

On to `CCOC(=O)CN1Cc2ccc(O)cc2C1=O`, for which the pIC50 was 3.70 to 4.30.

Consider `C[C@H](O)[C@H]1CC[C@H](CN2Cc3ccc(O)c(F)c3C2=O)CC1`, for which the pIC50 is > 6.00.

For the molecule `CC(N[C@@H](C(=O)O)C(C)C)C1CCC(CN2Cc3ccc(O)c(F)c3C2=O)CC1` (some centres unmarked), the pIC50 was > 6.00.

With `O=C1c2cc(O)ccc2CN1CCc1cccc(O)c1`, the pIC50 was 5.30 to 6.00.

With `CC(Oc1cccc(OCCN)c1)[C@H]1CC[C@H](CN2Cc3ccc(O)c(F)c3C2=O)CC1` (some centres unmarked), the pIC50 was > 6.00.

Regarding `NC[C@H]1CC[C@H](CN2Cc3ccc(O)c(F)c3C2=O)CC1`, the negative logarithm of the IC50 (pIC50) is 5.30 to 6.00.

`CCCNC(C)[C@H]1CC[C@H](CN2Cc3ccc(O)cc3C2=O)CC1` (some centres unmarked): the pIC50 is 5.30 to 6.00.

In the case of `O=C1c2cc(O)ccc2CN1C[C@H]1CC[C@H](COc2cccc(F)c2)CC1`, the pIC50 was > 6.00.

With `O=C1c2cc(O)ccc2CN1CCc1ccccc1`, the negative logarithm of the IC50 (pIC50) is 5.00 to 5.30.

With `COc1cccc(OC(C)[C@H]2CC[C@H](CN3Cc4ccc(O)c(F)c4C3=O)CC2)c1` (some centres unmarked), the pIC50 is > 6.00.

`N[C@@H](COc1cccc(OC[C@H]2CC[C@H](CN3Cc4ccc(O)c(F)c4C3=O)CC2)c1)C(=O)O`: the pIC50 is > 6.00.

`O=C1c2cc(O)ccc2CN1[C@@H](CO)C1CCCCC1`: the pIC50 is 4.30 to 5.00.

In the case of `COC(=O)[C@@H](CO)NC(C)C1CCC(CN2Cc3ccc(O)c(F)c3C2=O)CC1` (some centres unmarked), the pIC50 is > 6.00.

In the case of `CC(NC(CO)CO)C1CCC(CN2Cc3ccc(O)c(F)c3C2=O)CC1` (centres unmarked), the pIC50 was > 6.00.

Turning to `COC(=O)[C@H](NC(C)C1CCC(CN2Cc3ccc(O)c(F)c3C2=O)CC1)C(C)C` (some centres unmarked), the pIC50 is > 6.00.

With `COC(C)[C@H]1CC[C@H](CN2Cc3ccc(O)c(F)c3C2=O)CC1` (some centres unmarked), the pIC50 was 5.30 to 6.00.

Take `O=C1OCc2ccc(OC[C@H]3CC[C@H](CN4Cc5ccc(O)cc5C4=O)CC3)cc21`: the pIC50 is > 6.00.

Consider `CC(Oc1cccc(OCCN2CCOCC2)c1)[C@H]1CC[C@H](CN2Cc3ccc(O)c(F)c3C2=O)CC1` (some centres unmarked), for which the pIC50 was > 6.00.

Regarding `CC(=O)NC[C@H]1CC[C@H](CN2Cc3ccc(O)c(F)c3C2=O)CC1`, the pIC50 is > 6.00.

For the molecule `CCCC(Oc1cccc(F)c1)[C@H]1CC[C@H](CN2Cc3ccc(O)cc3C2=O)CC1` (some centres unmarked), the pIC50 is > 6.00.

As to `CN(C)C(=O)[C@H]1CC[C@H](CN2Cc3ccc(O)cc3C2=O)CC1`, the negative logarithm of the IC50 (pIC50) is 5.30 to 6.00.

On to `O=C1c2cc(O)ccc2CN1C[C@H]1CC[C@H](C(O)C2CCCCC2)CC1` (some centres unmarked), for which the pIC50 was > 6.00.

Consider `O=C(OC1CCCC1)C1CCC(CCN2Cc3ccc(O)cc3C2=O)CC1` (centres unmarked) [drawing 138], for which the pIC50 is 5.30 to 6.00.

For `O=C1c2cc(O)ccc2CN1C[C@H]1CC[C@H](C(O)CC2CCCCC2)CC1` (some centres unmarked), the pIC50 was > 6.00.

On to `O=C(OC1CCCCC1)c1ccc(CCN2Cc3ccc(O)cc3C2=O)cc1`, for which the pIC50 was 5.30 to 6.00.

As to `COC(=O)[C@@H](CO)NC(C)[C@H]1CC[C@H](CN2Cc3ccc(O)c(F)c3C2=O)CC1` (single isomer, unassigned), the pIC50 was > 6.00.

As to `CC(N)[C@H]1CC[C@H](CN2Cc3cc(Cl)c(O)c(F)c3C2=O)CC1` (some centres unmarked), the negative-log IC50 (pIC50) was 5.30 to 6.00.

Regarding `O=C(OC1CCCC1)C1CCC(CCN2Cc3ccc(O)cc3C2=O)CC1` (centres unmarked) [drawing 139], the pIC50 was 5.30 to 6.00.

By pIC50 is commonly meant the negative decadic logarithm of the IC50, by convention in mol/L.
